Assay [1] has as its target T1, NPP1 (Homo sapiens, UniProt P22413).
T1 construct: the catalytic domains of the enzymes were amplified and sub-cloned into the expression vector pACGP67 A/B; made in house; host or cells: Sf9 insect cells
T1 sequence (P22413 98-925 limits assumed): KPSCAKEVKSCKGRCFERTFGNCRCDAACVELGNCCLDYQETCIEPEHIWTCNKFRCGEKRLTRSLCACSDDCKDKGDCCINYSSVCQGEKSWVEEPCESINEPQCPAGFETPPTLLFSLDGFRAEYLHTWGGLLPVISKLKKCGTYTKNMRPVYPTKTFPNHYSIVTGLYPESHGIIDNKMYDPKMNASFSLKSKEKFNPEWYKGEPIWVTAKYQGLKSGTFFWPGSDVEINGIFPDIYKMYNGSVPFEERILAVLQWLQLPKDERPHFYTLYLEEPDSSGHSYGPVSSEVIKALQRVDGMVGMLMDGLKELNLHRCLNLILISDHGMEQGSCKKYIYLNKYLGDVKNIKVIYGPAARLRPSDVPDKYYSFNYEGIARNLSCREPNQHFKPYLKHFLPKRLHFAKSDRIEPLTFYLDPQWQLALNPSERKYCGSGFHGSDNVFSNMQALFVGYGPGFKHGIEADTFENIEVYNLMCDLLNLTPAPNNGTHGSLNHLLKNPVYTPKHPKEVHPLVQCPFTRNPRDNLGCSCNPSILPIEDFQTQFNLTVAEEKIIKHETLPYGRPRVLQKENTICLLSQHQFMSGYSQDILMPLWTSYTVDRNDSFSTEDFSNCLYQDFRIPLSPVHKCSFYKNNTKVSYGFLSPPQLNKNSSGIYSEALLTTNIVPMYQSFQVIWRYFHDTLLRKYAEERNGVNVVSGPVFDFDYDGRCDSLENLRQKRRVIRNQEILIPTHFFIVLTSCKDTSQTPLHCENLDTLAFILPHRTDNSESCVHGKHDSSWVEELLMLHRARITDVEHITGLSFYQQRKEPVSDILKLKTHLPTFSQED
In words: NPP1 assay with p-Nph-5'-TMP as substrate. Type of assay: biochemical. As to conditions: soluble NPP1; 400 µM p-Nph-5'-TMP; read-out: Ki ± SEM. An excerpt:
The cDNAs of the human enzymes NPP1, NPP3, NPP5, CD38 and CD73 (Genbank accession no. NM_006258, NM_005021, NM_021572, NM_ 001775, and NM_002526, respectively) were obtained from Origene (Rockville, USA). Soluble enzymes were produced as previously reported with some modifications ([Lee et al., 2015]; [Junker et al., 2019]). Briefly, the catalytic domains of the enzymes were amplified and sub-cloned into the expression vector pACGP67 A/B modified with the addition of 9 x histidine tag (His-tag) at the C-terminus (except for NPP1). The plasmids were transfected in Sf9 insect cells using Cellfectin™ II Reagent (Thermo Fisher Scientific, MA, USA) and ProEasy™ baculovirus linearized DNA (Cat.#A10S, AB Vector, LLC). Protein expression was conducted for 48 h at 27°C. The signal peptide sequence of the expression vector shuttled the proteins into the supernatant. The supernatant medium was collected, and the enzymes were purified using HisPur™ Ni^2+-NTA spin columns according to the manufacturer’s protocol. The protein concentration was determined by the method previously described by [Lowry et al. (1951)].
Inhibition of NPP1 was determined as previously described ([Lee et al., 2017b]). p-Nitrophenyl-5’-thymidine monophosphate (p-Nph-5’-TMP) was used as an artificial substrate which results in the formation of the p-nitrophenolate anion with an absorption maximum of 400 nm. Purified soluble NPP1 [0.36 µg, expressed in Sf9 insect cells as previously described ([Lee et al., 2015])] was mixed with test compound (20 µM final concentration for initial screening, 0.1–200 µM for determining concentration-dependent inhibition curves), 2% DMSO and 400 µM of p-Nph-5’-TMP as a substrate in a final volume of 100 µl. The mixture was incubated for 30 min at 37°C with gentle shaking, and the enzyme reaction was terminated by the addition of 20 µl of 1 M NaOH. The absorption was measured at 405 nm using a BMG PheraStar FS plate reader (BMG Labtech GmbH, Ortenberg, Germany).

The target of assay [2] is T2, NPP4 (Homo sapiens, UniProt Q9Y6X5).
T2 construct: 1.4 µg of NPP4 (soluble form expressed in insect cells and purified); made in house; host or cells: Sf9 insect cells
T2 sequence (Q9Y6X5 16-407 limits assumed): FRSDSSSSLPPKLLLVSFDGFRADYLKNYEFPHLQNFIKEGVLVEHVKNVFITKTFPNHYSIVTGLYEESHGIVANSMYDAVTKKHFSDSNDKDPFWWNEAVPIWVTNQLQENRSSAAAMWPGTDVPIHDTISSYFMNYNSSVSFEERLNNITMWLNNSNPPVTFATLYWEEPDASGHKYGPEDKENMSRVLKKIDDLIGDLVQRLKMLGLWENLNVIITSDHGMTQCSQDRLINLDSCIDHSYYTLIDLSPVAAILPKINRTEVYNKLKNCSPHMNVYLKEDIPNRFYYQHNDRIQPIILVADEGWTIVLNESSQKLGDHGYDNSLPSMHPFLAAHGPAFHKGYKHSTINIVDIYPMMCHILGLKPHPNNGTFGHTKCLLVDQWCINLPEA
Description: NPP4 assay with AP4A as substrate, luciferin-luciferase detection. The class given is biochemical. The conditions noted are these: for inhibition at 10 µM: 10 µM test compound; for Ki: 20 µM AP4A, read-out: Ki ± SEM. The procedure:
Soluble NPP4 was expressed in Sf9 insect cells as recently described in detail ([Lopez et al., 2020]). Diadenosine tetraphosphate (AP4A) was employed as a substrate which is cleaved by NPP4 to ATP and AMP. The reaction product ATP was quantified by luciferin-luciferase reaction ([Lopez et al., 2020]). A mixture of 1.4 µg of NPP4 (soluble form expressed in insect cells and purified) ([Lopez et al., 2020]), 10 µM of test compound, 2 % DMSO, and 20 µM of AP4A as a substrate were incubated for 60 min at 37°C with gentle shaking. The reaction was terminated by heating at 90°C for 5 min, and after cooling down on ice, 50 µl of D-luciferin dissolved in buffer (300 mM Tris-HCl, 15 mM MgCl2, 100 ng D-luciferin, pH 7.8) and 50 µl of luciferase (50 ng dissolved in H2O) were added. The firefly luciferase reacts with D-luciferin in the presence of ATP produced by NPP4. The resulting luminescence was measured between 10–14 min at 560 nm using a BMG PheraStar FS plate reader (BMG Labtech GmbH, Ortenberg, Germany).

For `CCN(CC)c1ncnc2c1ncn2[C@@H]1O[C@H](COP(=O)(O)OP(=O)(O)C(Br)(Br)P(=O)(O)O)[C@@H](O)[C@H]1O` [ARL67156, (Dibromo((((((2R,3S,4R,5R)-5-(6-(diethylamino)-9H-purin-9-yl)-3,4-dihydroxytetrahydrofuran-2-yl)methoxy)-(hydroxy)-phosphoryl)oxy)(hydroxy)phosphoryl)methyl)-phosphonic Acid, reference compound], the Ki is 4.41 ± 3.53 µM in assay [1] and over 10 µM in assay [2]. Further, in assay [2], the inhibition at 10 µM is -1%.

Turning to `CCCCSc1nc2c(N)ncnc2n1[C@@H]1O[C@H](COP(=O)(O)OP(=O)(O)C(Br)(Br)P(=O)(O)O)[C@@H](O)[C@H]1O` [Compound 31, (((((((2R,3S,4R,5R)-5-(6-Amino-8-(butylthio)-9H-purin-9-yl)-3,4-dihydroxytetrahydrofuran-2-yl)methoxy)(hydroxy)-phosphoryl)oxy)(hydroxy)phosphoryl)dibromomethyl)-phosphonic Acid], the Ki in assay [1] amounted to 5.17 ± 1.75 µM. Also, in assay [2], the inhibition at 10 µM came out at 2% and the Ki is over 10 µM.

As for `CCCCNc1nc2c(NC)ncnc2n1[C@@H]1O[C@H](COP(=O)(O)OP(=O)(O)C(Br)(Br)P(=O)(O)O)[C@@H](O)[C@H]1O` [Compound 33, (Dibromo((((((2R,3S,4R,5R)-5-(8-(butylamino)-6-(methylamino)-9H-purin-9-yl)-3,4-dihydroxy-tetrahydrofuran-2-yl)methoxy)(hydroxy)phosphoryl)oxy)-(hydroxy)phosphoryl)methyl)-phosphonic Acid], in assay [1], the Ki amounted to 7.68 ± 5.4 µM. In assay [2], the inhibition at 10 µM was determined as 4% and the Ki is over 10 µM.

For the origin of these results see PMC7508162 (Frontiers in Pharmacology, 2020).
